Patent US5786492A, “Halichondrins” (Pharma Mar, S.A., priority 1992, dated 1998)
Values after ≈ are worked out from the molar mass of the structure shown.

Test system: P388 cell line
Assay: antitumor P388 bioassay
Type: cell-based, murine
Conditions: for IC50, murine leukaemia cell (P388 cell line): text comparison of three halichondrins
Excerpt: Most of the compounds have been submitted to the antitumor P388 bioassay.

Compound | IC50 against P388 cell line (conc 0.0001 (unit of conc not given)) | IC50 against P388 cell line (conc 0.001 (unit of conc not given)) | IC50 against P388 cell line (other day, conc 0.001 (unit of conc not given)) | IC50, murine leukaemia cell (P388 cell line)
C=C1C[C@@H]2CC[C@@]34C[C@H]5O[C@H]6[C@@H](O3)[C@H]3O[C@H](CC[C@@H]3O[C@H]6[C@H]5O4)CC(=O)O[C@@H]3[C@@H](C)[C@@H]4O[C@@H]5C[C@]6(C[C@@H]7O[C@]8(C[C@H](C)[C@@H]9O[C@H]([C@@H](O)C[C@@H](O)CO)C[C@@H]9O8)C[C@H](C)[C@@H]7O6)O[C@@H]5C[C@@H]4O[C@H]3C[C@H]3O[C@@H](CC[C@@H]1O2)C[C@@H](C)C3=C [Halichondrin B] | 0.78 ng/mL (≈ 0.702 nM) | 1.58 ng/mL (≈ 1.42 nM) | < 0.09 ng/mL | 6.7 ng/mL (≈ 6.03 nM)
C=C1C[C@@H]2CC[C@@]34C[C@H]5O[C@H]6[C@@H](O3)[C@H]3O[C@H](CC[C@@H]3O[C@H]6[C@H]5O4)CC(=O)O[C@@H]3[C@@H](C)[C@@H]4O[C@@H]5C[C@]6(C[C@@H]7O[C@]8(C[C@H](C)[C@@H]9O[C@@H]%10CC(C(O)CO)O[C@@H]%10C[C@@H]9O8)C[C@H](C)[C@@H]7O6)O[C@@H]5C[C@@H]4O[C@H]3C[C@H]3O[C@@H](CC[C@@H]1O2)C[C@@H](C)C3=C (some centres unmarked) [Homohalichondrin B] |  |  |  | 6.4 ng/mL (≈ 5.7 nM)
